The source made the active and inactive calls.
Assays:
Type in all cases: functional
[1] = biological target: Mitogen-activated protein kinase kinase kinase 20 (Homo sapiens, UniProt Q9NYL2)
Misshapen-like kinase 1 = Misshapen-like kinase 1 (Homo sapiens, UniProt Q8N4C8);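 note: kinome panel screen with MINK as the panel member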
[2] = biological target: Serine/threonine-protein kinase D3 (Homo sapiens, UniProt O94806);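 note: determined within a kinase panel screen, with PRKCN as the panel member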
[3] = biological target: Tyrosine-protein kinase Fer (Homo sapiens, UniProt P16591);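 note: FER tested as one member of a kinome panel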
[4] = biological target: BDNF/NT-3 growth factors receptor (Homo sapiens, UniProt Q16620);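 note: NTRK2 measured as one member of a broad kinome-wide kinase profiling panel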
[5] = biological target: Receptor tyrosine-protein kinase erbB-4 (Homo sapiens, UniProt Q15303);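 note: ERBB4 member of a kinome-wide kinase profiling panel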
[6] = biological target: Cyclin-dependent kinase 5 (Homo sapiens, UniProt Q00535);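 note: CDK5 measured as one member of a kinase profiling panel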
[7] = biological target: Mitogen-activated protein kinase 9 (Homo sapiens, UniProt P45984);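 note: value from a kinome panel profiling assay, MAPK9 panel entry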
[8] = biological target: Interleukin-1 receptor-associated kinase 4 (Homo sapiens, UniProt Q9NWZ3)
[9] = biological target: Mitogen-activated protein kinase 8 (Homo sapiens, UniProt P45983);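 note: value comes from one member of a kinome-wide kinase profiling panel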
[10] = biological target: Serine/threonine-protein kinase PLK1 (Homo sapiens, UniProt P53350);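 note: PLK1 measured as one member of a kinome-wide profiling panel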
[11] = biological target: Dual specificity protein kinase CLK4 (Homo sapiens, UniProt Q9HAZ1)
[12] = biological target: Serine/threonine-protein kinase BRSK1 (Homo sapiens, UniProt Q8TDC3);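 note: measured within a kinome-wide kinase panel, with the target listed as KIAA1811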
[13] = biological target: Cyclin-dependent kinase 2 (Homo sapiens, UniProt P24941);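 note: CDK2 measured as one member of a broad kinome profiling panel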
[14] = biological target: Serine/threonine-protein kinase MRCK alpha (Homo sapiens, UniProt Q5VT25)
[15] = biological target: Calcium/calmodulin-dependent protein kinase type II subunit delta (Homo sapiens, UniProt Q13557)
[16] = biological target: MAP/microtubule affinity-regulating kinase 3 (Homo sapiens, UniProt P27448);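 note: MARK3 affinity measured as one member of a kinome panel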
[17] = biological target: Proto-oncogene tyrosine-protein kinase Src (Homo sapiens, UniProt P12931);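 note: SRC entry within a kinome-wide kinase profiling panel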
[18] = biological target: RAC-alpha serine/threonine-protein kinase (Homo sapiens, UniProt P31749);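 note: AKT1 affinity measured as one member of a kinome-wide kinase profiling panel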
[19] = biological target: Mitogen-activated protein kinase kinase kinase kinase 2 (Homo sapiens, UniProt Q12851);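 note: measured as one member of a kinome-wide kinase panel, with MAP4K2 as the panel entry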
SRSF protein kinase 1 = SRSF protein kinase 1 (Homo sapiens, UniProt Q96SB4);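 note: measured as one member of a kinome-wide kinase profiling panel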
Insulin receptor = Insulin receptor (Homo sapiens, UniProt P06213);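 note: insulin receptor kinase tested as one member of a kinome-wide kinase panel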
[20] = biological target: Serine/threonine-protein kinase Nek2 (Homo sapiens, UniProt P51955)
[21] = biological target: Dual specificity tyrosine-phosphorylation-regulated kinase 1A (Homo sapiens, UniProt Q13627);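 note: measured against DYRK1A as one member of a broad kinome profiling panel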
[22] = biological target: Non-receptor tyrosine-protein kinase TYK2 (Homo sapiens, UniProt P29597)
[23] = biological target: Protein kinase C delta type (Homo sapiens, UniProt Q05655)
[24] = biological target: Tyrosine-protein kinase Lyn (Homo sapiens, UniProt P07948);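 note: lyn as one member of a kinase panel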
[25] = biological target: Homeodomain-interacting protein kinase 2 (Homo sapiens, UniProt Q9H2X6);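 note: measured within a kinome-wide kinase profiling panel, HIPK2 being one panel member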
[26] = biological target: Serine/threonine-protein kinase N2 (Homo sapiens, UniProt Q16513)
[27] = biological target: Serine/threonine-protein kinase D2 (Homo sapiens, UniProt Q9BZL6);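 note: measured against PRKD2 as one member of a kinome-wide kinase profiling panel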
[28] = biological target: Casein kinase I isoform delta (Homo sapiens, UniProt P48730);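 note: measured as one member (CSNK1D) of a kinome panel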
[29] = biological target: Phosphorylase b kinase gamma catalytic chain, liver/testis isoform (Homo sapiens, UniProt P15735);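 note: PHKG2 measured as one member of a kinome-wide kinase panel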
[30] = biological target: Serine/threonine-protein kinase pim-1 (Homo sapiens, UniProt P11309)
Vero = experiment: viability of Vero cells under compound – cytotoxicity control for flavivirus capping enzyme inhibitors (AID 588742); details: Chlorocebus sabaeus
Protein RecA = biological target: T1, Protein RecA (Mycobacterium tuberculosis, UniProt P9WHJ3); experiment: Fluorescence Cell-Free Homogeneous Dose Retest to Identify Inhibitors of RecA-Intein Splicing Activity. [Related pubchem assays (depositor defined):AID2097, AID2223, AID489010, AID492950]
T1 sequence (P9WHJ3 whole entry): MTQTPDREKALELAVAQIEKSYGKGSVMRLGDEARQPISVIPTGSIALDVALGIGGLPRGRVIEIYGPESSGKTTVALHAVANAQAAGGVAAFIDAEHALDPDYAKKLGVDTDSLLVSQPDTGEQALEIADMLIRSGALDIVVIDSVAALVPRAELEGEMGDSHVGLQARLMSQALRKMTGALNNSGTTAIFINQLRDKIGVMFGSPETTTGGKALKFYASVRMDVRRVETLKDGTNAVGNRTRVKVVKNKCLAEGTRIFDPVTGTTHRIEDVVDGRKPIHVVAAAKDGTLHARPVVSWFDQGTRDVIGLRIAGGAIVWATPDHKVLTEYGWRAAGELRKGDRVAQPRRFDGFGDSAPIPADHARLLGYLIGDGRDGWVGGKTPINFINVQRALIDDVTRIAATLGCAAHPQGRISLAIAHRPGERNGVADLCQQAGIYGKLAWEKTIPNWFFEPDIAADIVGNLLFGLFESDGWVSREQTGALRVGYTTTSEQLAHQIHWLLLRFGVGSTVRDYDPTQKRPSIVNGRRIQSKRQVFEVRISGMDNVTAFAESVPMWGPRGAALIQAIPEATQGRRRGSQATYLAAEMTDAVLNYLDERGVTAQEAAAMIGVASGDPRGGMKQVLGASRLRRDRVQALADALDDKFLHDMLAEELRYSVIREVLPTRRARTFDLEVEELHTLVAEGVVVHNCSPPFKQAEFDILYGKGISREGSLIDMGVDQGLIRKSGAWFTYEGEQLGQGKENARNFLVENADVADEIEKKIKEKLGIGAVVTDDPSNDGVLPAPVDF

Protein kinase C delta type, sequence (Q05655 whole entry): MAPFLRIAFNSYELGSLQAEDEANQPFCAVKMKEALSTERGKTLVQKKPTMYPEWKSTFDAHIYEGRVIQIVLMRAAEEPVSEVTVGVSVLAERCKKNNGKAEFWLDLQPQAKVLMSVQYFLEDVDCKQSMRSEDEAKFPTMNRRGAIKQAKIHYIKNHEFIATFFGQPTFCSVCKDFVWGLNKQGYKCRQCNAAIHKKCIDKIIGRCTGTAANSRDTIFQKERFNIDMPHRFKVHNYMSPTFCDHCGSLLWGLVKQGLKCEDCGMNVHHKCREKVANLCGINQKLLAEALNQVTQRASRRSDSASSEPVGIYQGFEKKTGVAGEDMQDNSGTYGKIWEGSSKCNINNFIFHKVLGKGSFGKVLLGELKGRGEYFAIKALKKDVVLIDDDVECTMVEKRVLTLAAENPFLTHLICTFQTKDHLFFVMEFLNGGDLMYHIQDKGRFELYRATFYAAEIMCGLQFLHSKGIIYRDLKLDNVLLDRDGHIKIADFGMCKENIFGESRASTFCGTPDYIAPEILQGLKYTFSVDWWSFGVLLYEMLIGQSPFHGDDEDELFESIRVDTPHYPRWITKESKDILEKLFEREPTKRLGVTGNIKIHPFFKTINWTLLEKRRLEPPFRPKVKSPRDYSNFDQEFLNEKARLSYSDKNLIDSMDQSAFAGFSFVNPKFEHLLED
Tyrosine-protein kinase Fer, sequence (P16591 whole entry): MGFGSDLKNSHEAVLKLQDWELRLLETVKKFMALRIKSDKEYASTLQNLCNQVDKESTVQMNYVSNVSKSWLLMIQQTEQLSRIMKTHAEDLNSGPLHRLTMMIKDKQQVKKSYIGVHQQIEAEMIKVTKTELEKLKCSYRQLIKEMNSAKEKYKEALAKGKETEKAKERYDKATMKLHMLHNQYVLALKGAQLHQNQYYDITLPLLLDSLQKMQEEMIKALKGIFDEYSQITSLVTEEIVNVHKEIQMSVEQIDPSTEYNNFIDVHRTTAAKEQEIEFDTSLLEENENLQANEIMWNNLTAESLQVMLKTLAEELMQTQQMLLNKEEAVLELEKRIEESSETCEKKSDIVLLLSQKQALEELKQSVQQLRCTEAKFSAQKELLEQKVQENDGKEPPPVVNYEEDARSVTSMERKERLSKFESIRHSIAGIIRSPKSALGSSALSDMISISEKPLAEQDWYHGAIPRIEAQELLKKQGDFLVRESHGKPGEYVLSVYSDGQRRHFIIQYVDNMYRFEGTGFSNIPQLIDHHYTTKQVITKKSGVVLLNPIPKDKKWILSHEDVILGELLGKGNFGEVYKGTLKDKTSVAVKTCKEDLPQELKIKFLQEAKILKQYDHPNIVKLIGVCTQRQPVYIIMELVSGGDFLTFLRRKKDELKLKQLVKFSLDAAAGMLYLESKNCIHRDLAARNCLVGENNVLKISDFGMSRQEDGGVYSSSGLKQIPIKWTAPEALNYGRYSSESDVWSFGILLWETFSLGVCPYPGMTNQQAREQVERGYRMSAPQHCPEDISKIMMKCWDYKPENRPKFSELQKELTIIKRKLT
Interleukin-1 receptor-associated kinase 4, sequence (Q9NWZ3 whole entry): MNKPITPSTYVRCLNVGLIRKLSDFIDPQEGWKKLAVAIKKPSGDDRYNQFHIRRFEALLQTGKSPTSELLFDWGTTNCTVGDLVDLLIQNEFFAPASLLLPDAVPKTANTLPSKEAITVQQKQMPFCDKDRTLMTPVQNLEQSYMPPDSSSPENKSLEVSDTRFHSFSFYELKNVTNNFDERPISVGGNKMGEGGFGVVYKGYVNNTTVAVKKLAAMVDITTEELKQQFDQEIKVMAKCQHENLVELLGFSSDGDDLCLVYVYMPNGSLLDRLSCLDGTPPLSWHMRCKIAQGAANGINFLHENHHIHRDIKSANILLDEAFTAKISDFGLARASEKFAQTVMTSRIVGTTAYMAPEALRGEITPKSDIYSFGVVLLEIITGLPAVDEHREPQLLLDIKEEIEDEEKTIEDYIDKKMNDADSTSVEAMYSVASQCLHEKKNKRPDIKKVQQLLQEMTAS
Serine/threonine-protein kinase D2, sequence (Q9BZL6 whole entry, canonical isoform): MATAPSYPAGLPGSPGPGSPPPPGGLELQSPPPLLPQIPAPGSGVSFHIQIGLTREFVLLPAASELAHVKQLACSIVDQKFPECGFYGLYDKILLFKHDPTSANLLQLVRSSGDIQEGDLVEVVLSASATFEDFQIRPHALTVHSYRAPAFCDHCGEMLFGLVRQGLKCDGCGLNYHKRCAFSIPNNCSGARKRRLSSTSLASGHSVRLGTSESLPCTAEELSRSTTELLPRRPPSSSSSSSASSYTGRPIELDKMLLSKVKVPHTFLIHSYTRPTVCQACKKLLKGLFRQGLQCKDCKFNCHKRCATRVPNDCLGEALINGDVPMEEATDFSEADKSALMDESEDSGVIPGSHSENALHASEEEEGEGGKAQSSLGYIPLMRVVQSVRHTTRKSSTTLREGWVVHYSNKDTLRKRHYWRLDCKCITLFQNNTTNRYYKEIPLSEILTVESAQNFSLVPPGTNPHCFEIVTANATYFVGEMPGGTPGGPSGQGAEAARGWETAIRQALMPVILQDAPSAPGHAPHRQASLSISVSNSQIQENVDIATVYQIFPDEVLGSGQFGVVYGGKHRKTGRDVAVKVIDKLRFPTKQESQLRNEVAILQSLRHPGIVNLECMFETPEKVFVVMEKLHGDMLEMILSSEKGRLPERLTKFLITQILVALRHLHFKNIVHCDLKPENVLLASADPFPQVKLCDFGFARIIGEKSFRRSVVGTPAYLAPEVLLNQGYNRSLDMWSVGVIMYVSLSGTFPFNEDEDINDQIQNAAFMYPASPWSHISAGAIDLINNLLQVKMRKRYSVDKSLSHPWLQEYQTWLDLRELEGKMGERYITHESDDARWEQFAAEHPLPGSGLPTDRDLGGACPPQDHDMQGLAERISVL
Casein kinase I isoform delta, sequence (P48730 whole entry, canonical isoform): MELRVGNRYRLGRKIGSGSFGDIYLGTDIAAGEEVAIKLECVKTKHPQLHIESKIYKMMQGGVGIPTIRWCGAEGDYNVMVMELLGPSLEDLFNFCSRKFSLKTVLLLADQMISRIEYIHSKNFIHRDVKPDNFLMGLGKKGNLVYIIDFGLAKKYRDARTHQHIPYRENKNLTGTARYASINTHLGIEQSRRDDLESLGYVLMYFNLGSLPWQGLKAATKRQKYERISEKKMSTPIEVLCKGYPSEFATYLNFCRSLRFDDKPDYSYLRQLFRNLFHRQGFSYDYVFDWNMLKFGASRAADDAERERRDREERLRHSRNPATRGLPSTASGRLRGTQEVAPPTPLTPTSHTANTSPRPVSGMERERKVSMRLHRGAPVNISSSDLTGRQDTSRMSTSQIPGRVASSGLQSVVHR
Phosphorylase b kinase gamma catalytic chain, liver/testis isoform, sequence (P15735 whole entry, canonical isoform): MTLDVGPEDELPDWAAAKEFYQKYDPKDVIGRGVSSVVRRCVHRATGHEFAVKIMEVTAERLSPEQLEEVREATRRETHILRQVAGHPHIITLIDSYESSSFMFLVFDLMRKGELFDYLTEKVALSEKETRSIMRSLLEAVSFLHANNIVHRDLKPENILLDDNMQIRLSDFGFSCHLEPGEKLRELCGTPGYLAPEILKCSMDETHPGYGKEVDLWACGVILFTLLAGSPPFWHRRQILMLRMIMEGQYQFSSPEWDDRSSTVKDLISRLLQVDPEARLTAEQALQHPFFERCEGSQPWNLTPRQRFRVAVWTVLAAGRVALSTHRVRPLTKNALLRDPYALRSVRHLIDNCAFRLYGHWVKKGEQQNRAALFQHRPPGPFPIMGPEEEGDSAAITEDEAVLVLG
MAP/microtubule affinity-regulating kinase 3, sequence (P27448 whole entry): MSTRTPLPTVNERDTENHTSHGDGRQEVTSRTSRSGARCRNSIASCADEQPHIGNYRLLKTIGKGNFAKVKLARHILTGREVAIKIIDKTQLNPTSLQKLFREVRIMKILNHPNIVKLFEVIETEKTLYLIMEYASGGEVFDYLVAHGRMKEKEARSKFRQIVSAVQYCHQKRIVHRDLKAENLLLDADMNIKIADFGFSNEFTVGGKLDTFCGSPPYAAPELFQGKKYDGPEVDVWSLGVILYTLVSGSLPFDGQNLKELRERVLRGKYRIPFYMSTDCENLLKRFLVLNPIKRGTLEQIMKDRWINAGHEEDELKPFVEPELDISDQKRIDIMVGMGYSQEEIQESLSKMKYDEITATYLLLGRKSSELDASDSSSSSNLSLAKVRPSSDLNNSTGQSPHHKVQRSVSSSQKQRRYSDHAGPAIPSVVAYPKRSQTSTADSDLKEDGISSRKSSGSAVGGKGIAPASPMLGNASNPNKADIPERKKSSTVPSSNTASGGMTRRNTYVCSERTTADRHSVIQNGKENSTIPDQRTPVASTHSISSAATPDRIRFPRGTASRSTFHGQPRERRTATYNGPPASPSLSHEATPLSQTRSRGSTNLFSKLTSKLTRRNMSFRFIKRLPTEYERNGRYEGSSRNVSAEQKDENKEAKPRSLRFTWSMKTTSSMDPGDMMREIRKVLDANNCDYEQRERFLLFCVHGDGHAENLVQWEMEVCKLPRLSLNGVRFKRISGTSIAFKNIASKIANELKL
Serine/threonine-protein kinase pim-1, sequence (P11309 whole entry): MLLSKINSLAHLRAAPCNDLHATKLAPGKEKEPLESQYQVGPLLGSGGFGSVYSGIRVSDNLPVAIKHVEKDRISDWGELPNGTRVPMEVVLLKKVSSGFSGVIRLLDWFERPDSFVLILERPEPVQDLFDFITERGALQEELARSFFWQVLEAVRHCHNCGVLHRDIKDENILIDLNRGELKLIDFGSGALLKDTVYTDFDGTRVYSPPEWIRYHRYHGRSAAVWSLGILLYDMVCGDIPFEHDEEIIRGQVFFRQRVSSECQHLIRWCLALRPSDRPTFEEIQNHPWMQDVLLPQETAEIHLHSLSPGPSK
Cyclin-dependent kinase 5, sequence (Q00535 whole entry): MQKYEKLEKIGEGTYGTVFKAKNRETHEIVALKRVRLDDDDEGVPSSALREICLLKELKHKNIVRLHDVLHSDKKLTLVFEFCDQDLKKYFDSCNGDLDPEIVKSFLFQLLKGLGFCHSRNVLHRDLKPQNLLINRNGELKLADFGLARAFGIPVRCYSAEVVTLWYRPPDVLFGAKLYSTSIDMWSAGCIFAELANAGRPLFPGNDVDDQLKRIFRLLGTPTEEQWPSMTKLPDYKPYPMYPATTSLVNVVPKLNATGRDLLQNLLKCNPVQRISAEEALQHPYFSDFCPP

SMILES: Cn1cncc1C(OCc1c(-c2ccc(OC(F)(F)F)cc2)cc(C#N)c(=O)n1C)c1ccc(C#N)cc1 (stereo not given)
- Ki [1]: > 7.94 µM (inactive)
- Ki (Misshapen-like kinase 1): > 7.94 µM (inactive)
- Ki [2]: > 10 µM (inactive)
- Ki [3]: > 1.58 µM (inactive)
- Ki [4]: > 5.01 µM (inactive)
- Ki [5]: > 3.98 µM (inactive)
- Ki [6]: > 10 µM (inactive)
- Ki [7]: > 3.98 µM (inactive)
- Ki [8]: > 10 µM (inactive)
- Ki [9]: > 3.16 µM (inactive)
- Ki [10]: > 7.94 µM (inactive)
- Ki [11]: > 10 µM (inactive)
- Ki [12]: > 10 µM (inactive)
- Ki [13]: > 7.94 µM (inactive)
- Ki [14]: > 10 µM (inactive)
- Ki [15]: > 6.31 µM (inactive)
- Ki [16]: 0.794 µM (active)
- Ki [17]: > 2 µM (inactive)
- Ki [18]: > 7.94 µM (inactive)
- Ki [19]: > 6.31 µM (inactive)
- Ki (SRSF protein kinase 1): > 7.94 µM (inactive)
- Ki (Insulin receptor): > 5.01 µM (inactive)
- Ki [20]: > 10 µM (inactive)
- Ki [21]: 0.316 µM (active)
- Ki [22]: > 2 µM (inactive)
- Ki [23]: > 7.94 µM (inactive)
- Ki [24]: 0.316 µM (active)
- Ki [25]: > 3.16 µM (inactive)
- Ki [26]: > 7.94 µM (inactive)
- Ki [27]: > 10 µM (inactive)
- Ki [28]: > 7.94 µM (inactive)
- Ki [29]: > 5.01 µM (inactive)
- Ki [30]: > 10 µM (inactive)

SMILES: CCc1ccc(S(=O)(=O)/N=C2\C=C(NS(=O)(=O)c3ccccc3)C(=O)c3ccccc32)cc1
- CC50 (Vero): > 40 µM (active)
- EC50 (Protein RecA): 3.08 µM (active)

Source: ChEMBL document CHEMBL1201862, “PubChem BioAssay data set” (2004)
